Data reported in patent US20140086881A1, “GOOD HEALTHY CELLS FOUND IN PROTEINS, THEIR APPLICATIONS, AND PROCESS OF MAKING A MEDIUM TO HARVEST THE CELLS” (priority 2012, published 2014).
Read-outs that look alike come from different tables or passages of the source.

Columns and labels:
[1] = test system: Adjuvant-Induced Arthritis (AIA); assay: Adjuvant-Induced Arthritis (AIA) in Lewis rats; conditions: 35 days and 45 days treatment sections
HCV 1a replicon = assay: microbe, parasite or virus in culture; type: cell-based; conditions: Hepatitis C virus, read-out: EC50 (uM) 1a
Experimental: (§1) The cells are counted using hemocytometer.
(§2) Incubate plate at 5% CO2, 37° C. for 4 hours.
(§3) Dose-response curves are plotted using Prism.

HCV 1b replicon = assay: microbe, parasite or virus in culture; type: cell-based; conditions: Hepatitis C virus, read-out: EC50 (uM) 1b
Experimental: as §1, §2, §3

HCV 2a replicon = assay: microbe, parasite or virus in culture; type: cell-based; conditions: Hepatitis C virus, read-out: EC50 (uM) 2a
Experimental: as §1, §2, §3

lung cancer cells = assay: KH mediums vs lung cancer cells, in-vitro well study; type: cell-based
Description: From which other companies in China have produced Human Albumin for use in the cell growth instead of feta bovine serum and also
The above have been discovered in In-Vitro well study but not tested for CCK8 to measure the degree of inhibition of the cancer cells by each of the mediums. Such a study has been performed on Oct. 4, 2012 it is amazing to find out that all series of medium from KH100, KH200 and KH300 have different level of effect on the inhibition of the lung cancer, leukemia, gastric and breast both solid tumors and blood cancer have been tested.

atherosclerotic model = conditions: for Animal Wounded, Total: n = 10, reason: fighting each other; for Animal Dead, Total: n = 10 ApoE ko mice, high fat diet
Description: 10 ApoE ko mice were fed with regular chow diet and used as negative control group. 50 ApoE ko mice were fed with high fat diet (35% kcal fat, 1% cholesterol) for 8 weeks, and then the plasma samples were collected for lipid profile measurement before the treatment. 50 ApoE ko mice were assigned into 5 groups based on the fasting overnight plasma TC and HDL level.
• 23 Dec. 2011: 60 ApoE mice arrived at chempartner and were housed in the animal facility in the building #3 for the acclimation. • 6 Jan. 2012: Measured the body weight for each mouse. 50 mice were fed with high fat diet and 10 mice were fed with normal chow diet. • 2 Mar. 2012: All mice were fasted over night and plasma samples (about 300 ul whole blood) were collected for lipid profile measurement before treatment with RAAS antibody. • 19 Mar. 2012 to 6 Apr. […] 2012: All mice were fasted over night and plasma sample for each mouse (about 300 ul whole blood) was collected for lipid profile measurement after 16 weeks treatment. Blood glucose was also measured for each mouse. • 9 Jul. 2012: The study was terminated after 16 weeks treatment. Measure BW, sacrificed each mouse, dissected the aorta, heart, liver and kidney and fixed them in 4% PFA.
Antibody products were administrated by intraperitoneal injection every two days (Monday, Wednesday, and Friday). and the positive compound was administered by p.o every day.
The body weight was weighed weekly during the period of treatment.
The fasting overnight blood glucose was measured at the end of study by Roche glucometer.
About 300 ul of blood sample was collected from the orbital vein for each mouse and centrifuged at 7000 rpm for 5 min at 4° C. and the plasma lipid profile was measured by Roche Modular automatic biochemistry analyzer in DaAn Medical Laboratory
After RAAS antibody products treatment for 16 weeks, all mice were sacrificed. Measured body weight and collected blood sample for each mouse. Weighed liver weight and saved a tiny piece of liver into 4% paraformaldehyde (PFA) fixation solution for further analysis. At same time, take the photos with heart, lung, aortas and two kidneys.
1. Sacrificed the mice and dissected the heart, aorta, and arteries under dissecting microscope.
4. Stain with freshly prepared Oil Red O working solution 10 min. • 1). Oil red O stock stain: 0.5% powder in isopropanol • 2). Working solution: dilute with distilled water (3:2) and filter with membrane (0.22 um)
Scanning the glasses slides with the Aperio ScanScope system and analyze with the image proplus software to measure the area of atherosclerotic plaque lession. The results were expressed as the percentage of the total aortic surface area covered by lesions. The operation procedure of software was briefly described as follow: Converted the sys version photos into JPG version, then calibrated it and subsequently selected the red regions and then calculate the total area automatically by image proplus software.
The results were expressed as the Mean±SEM and statistically evaluated by student's t-test.
Area Percent (%)=Sum Area of Atherosclerotic Plaque (Mm^2)/Whole Area of Vascular Inner Wall (Mm^2)

HBV in HepG2.2.15 = assay: Anti-HBV potency in stable HBV cell line (HBV DNA real time PCR); type: cell-based; conditions: Hepatitis B virus
Experimental: Lamivudine is diluted with 3-fold for 9 concentrations.
i) Cell culture medium: RPM 1640-4% FBS-1% Pen/Strep-1% Glutamine ii) HepG2.2.15 cell culture: Grow the cells in T75 flask. Incubated at 37° C., 95% humidity, 5% CO2.
f) Refresh protein-containing medium on day 3 of drug treatment. g) Collect culture media from the HepG2.2.15 plates on day 6 followed by HBV DNA extraction using QIAamp 96 DNA Blood Kit (QIAGEN #51161). 2) Real time PCR for HBV DNA quantification. a) Dilute HBV plasmid standard by 10-fold from 0.1 ng/ul to 0.000001 ng/ul. b) Prepare realtime PCR mix as shown blow.
c) Add 15 ul/well PCR mix to 96-well optical reaction plates. d) Add 10 ul of the diluted plasmid standard to C12-H12. […]
3) Data analysis: A standard curve is generated by plotting Ct value vs. the amount of the HBV plasmid standard, and the quantity of each sample is estimated based on the Ct value projection on the standard curve; percent of HBV inhibition by protein or compound is calculated using the following equation: % Inh.=[1−(HBV quantity of sample−HBV quantity of HepG2 control)/(HBV quantity of 0% Inhibition control−HBV quantity of HepG2 control)]*100.

HBV = HBV mouse hydrodynamic injection (HDI) model; type: in vivo, BALB/c mice; conditions: therapeutically-treated mice, from day 3 post HDI to the end
Description: Hydrodynamic injection (HDI) is an in vivo gene delivery technology. It refers to transiently transfect the mouse liver cells with a foreign gene via tail vein injection of a large volume saline containing plasmid within a few seconds. Taking the advantage of the liver-targeting manner of hydrodynamic injection, a single hydrodynamic injection of a replication-competent HBV DNA, could result in HBV replication in mouse liver shortly. This HBV hydrodynamic injection model on immunocompetent mice is a convenient and reproducible animal model for anti-HBV compound screening in vivo, which has been successfully established in WuXi ID department.
• 3.1 Hydrodynamic injection and compound administration • 3.1.1. From day −7 to day 0, all 5 mice in group 4 were administrated i.p./i.v. with test article daily for 8 days according to Table 14.2. • 3.1.2. On day 0, all groups of mice were hydrodynamicly injected via tail vein with pcDNA3.1/HBV plasmid DNA in a volume of normal saline equal to 8% of a mouse body weight. […]
• 3.2.1.1 Isolate DNA from 50 μl plasma using QIAamp 96 DNA Blood Kit. […] Run qPCR for HBV DNA quantification. a) Dilute HBV plasmid standard by 10-fold from 10^7 copies/μl to 10 copies/μl. b) Prepare qPCR mix as shown below. […]
HBV DNA quantity=DNA determined by HBV primer-DNA determined by plasmid primer. […]

Compound: C[C@@H]1C[C@H]2[C@@H]3CCC4=CC(=O)C=C[C@]4(C)[C@@]3(F)[C@@H](O)C[C@]2(C)[C@@]1(O)C(=O)CO [Dex, Dexamethasone]
- body weight compared with saline group [1]: reduction of body weight

Compound: NC(=O)c1ncn([C@@H]2O[C@H](CO)[C@@H](O)[C@H]2O)n1 [Ribavirin]
- EC50 (HCV 1a replicon): 57.6 µM
- EC50 (HCV 1b replicon): 39 µM
- EC50 (HCV 2a replicon): 37.4 µM

Compound: bovine human albumin: animal protein product
- effect on lung cancer cells (lung cancer cells): inhibited lung cancer cell growth

Compound: APOA 1
- Animal Wounded, Total (atherosclerotic model; high dose 0.1 ml i.p.): 1
- Animal Dead, Total (atherosclerotic model; high dose 0.1 ml i.p., reason: Fighting): 1
- Animal Wounded, Total (atherosclerotic model; low dose): 3
- Animal Dead, Total (atherosclerotic model; low dose, reasons: gastrorrhagia, urinary tract infection (2)): 3
- Animal Wounded, Total (atherosclerotic model; mid dose 0.075 ml i.p.): 1
- Animal Dead, Total (atherosclerotic model; mid dose 0.075 ml i.p., reason: Fighting): 1

Compound: Nc1ccn([C@@H]2CS[C@H](CO)O2)c(=O)n1 [Lamivudine]
- EC50 (HBV in HepG2.2.15): 0.0062 µM

Compound: C=C1[C@H](CO)[C@@H](O)C[C@@H]1n1cnc2c(=O)[nH]c(N)nc21 [ETV, Entecavir]
- HBV replication in plasma (HBV): significant inhibition
